Experimental data as given in ChEMBL document CHEMBL1201862, “PubChem BioAssay data set” (2004).
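Five concentrations, 48 hours, 96-well plates. GI50 marks 50% less growth.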 Activity calls are given as the source filed them. No stated cut-off is given here; in the data, active = GI50 up to about 1.1 µM and inactive = higher. Residues, ends and D or L forms follow the SMILES beside them. *: point of attachment. Cbz = O=C(OCc1ccccc1)*

Assays:
Assay in all cases: growth of human tumour cells (NCI), 48 h
786-0 = tested on: 786-0
HCC 2998 = tested on: HCC 2998
HL-60 = tested on: HL-60
M14 = tested on: M14
MOLT-4 = tested on: MOLT-4
NCI/ADR-RES = tested on: NCI/ADR-RES
OVCAR-5 = tested on: OVCAR-5
OVCAR-8 = tested on: OVCAR-8
RXF 393 = tested on: RXF 393
SF-539 = tested on: SF-539
SK-MEL-28 = tested on: SK-MEL-28
SK-MEL-2 = tested on: SK-MEL-2
SNB-75 = tested on: SNB-75
UO-31 = tested on: UO-31
CAKI-1 = tested on: CAKI-1
HOP-62 = tested on: HOP-62
HOP-92 = tested on: HOP-92
NCI-H460 = tested on: NCI-H460
OVCAR-3 = tested on: OVCAR-3
SK-OV-3 = tested on: SK-OV-3

SMILES	GI50 (786-0)	GI50 (HCC 2998)	GI50 (HL-60)	GI50 (M14)	GI50 (MOLT-4)	GI50 (NCI/ADR-RES)	GI50 (OVCAR-5)	GI50 (OVCAR-8)	GI50 (RXF 393)	GI50 (SF-539)	GI50 (SK-MEL-28)	GI50 (SK-MEL-2)	GI50 (SNB-75)	GI50 (UO-31)	GI50 (CAKI-1)	GI50 (HOP-62)	GI50 (HOP-92)	GI50 (NCI-H460)	GI50 (OVCAR-3)	GI50 (SK-OV-3)
CCOC(=O)C(NC(=O)CC)(Nc1cc(C)on1)C(F)(F)F (stereo unspecified)	> 100 µM (inactive)	> 100 µM (inactive)	> 100 µM (inactive)	> 100 µM (inactive)	> 100 µM (inactive)	> 100 µM (inactive)	> 100 µM (inactive)	> 100 µM (inactive)	> 100 µM (inactive)	> 100 µM (inactive)	> 100 µM (inactive)	> 100 µM (inactive)	> 100 µM (inactive)	> 100 µM (inactive)	–	–	–	–	–	–
N=C(N)c1ccc(/C=C/c2ccc(C(=N)N)cc2)cc1	62.1 µM (inactive)	90.8 µM (inactive)	–	> 100 µM (inactive)	> 100 µM (inactive)	77.3 µM (inactive)	81.8 µM (inactive)	85.7 µM (inactive)	> 100 µM (inactive)	–	45.8 µM (inactive)	27.1 µM (inactive)	32.1 µM (inactive)	> 100 µM (inactive)	94.6 µM (inactive)	41.2 µM (inactive)	> 100 µM (inactive)	34.5 µM (inactive)	> 100 µM (inactive)	–
COc1ccc(/C=C/NC=O)cc1	> 100 µM (inactive)	> 100 µM (inactive)	> 100 µM (inactive)	> 100 µM (inactive)	> 100 µM (inactive)	> 100 µM (inactive)	> 100 µM (inactive)	> 100 µM (inactive)	> 100 µM (inactive)	> 100 µM (inactive)	> 100 µM (inactive)	> 100 µM (inactive)	18.1 µM (inactive)	> 100 µM (inactive)	–	> 100 µM (inactive)	–	> 100 µM (inactive)	> 100 µM (inactive)	> 100 µM (inactive)
COc1ccc(OC)c2c1C=CC(Br)=CC2	0.193 µM (active)	0.195 µM (active)	–	0.237 µM (active)	0.144 µM (active)	0.296 µM (active)	–	0.43 µM (active)	–	0.653 µM (active)	0.35 µM (active)	0.106 µM (active)	–	0.332 µM (active)	0.269 µM (active)	0.269 µM (active)	0.148 µM (active)	0.211 µM (active)	0.276 µM (active)	0.0582 µM (active)
CNC(=S)Nc1ccc(OC)c2ccccc12	> 10 µM (inactive)	> 10 µM (inactive)	> 10 µM (inactive)	> 10 µM (inactive)	> 10 µM (inactive)	> 10 µM (inactive)	> 10 µM (inactive)	> 10 µM (inactive)	–	> 10 µM (inactive)	> 10 µM (inactive)	–	4.43 µM (inactive)	–	> 10 µM (inactive)	> 10 µM (inactive)	> 10 µM (inactive)	–	2.88 µM (inactive)	> 10 µM (inactive)
Cc1cc(NS(=O)(=O)c2ccc(Nc3c4ccccc4nc4c(C(=O)N5CCN(CCO)CC5)cccc34)cc2)no1	> 100 µM (inactive)	49 µM (inactive)	47.6 µM (inactive)	> 100 µM (inactive)	83.2 µM (inactive)	–	> 100 µM (inactive)	> 100 µM (inactive)	22.3 µM (inactive)	> 100 µM (inactive)	> 100 µM (inactive)	> 100 µM (inactive)	> 100 µM (inactive)	> 100 µM (inactive)	> 100 µM (inactive)	> 100 µM (inactive)	> 100 µM (inactive)	> 100 µM (inactive)	> 100 µM (inactive)	> 100 µM (inactive)
CCN(CC)CCOc1ccc(/C=C(\C#N)c2ccc(OCCN(CC)CC)cc2)cc1	11.3 µM (inactive)	15.7 µM (inactive)	4.84 µM (inactive)	7.64 µM (inactive)	9.12 µM (inactive)	–	11.6 µM (inactive)	20.5 µM (inactive)	12.4 µM (inactive)	7.64 µM (inactive)	16.5 µM (inactive)	21.4 µM (inactive)	16 µM (inactive)	14.7 µM (inactive)	> 43.7 µM (inactive)	10.6 µM (inactive)	16.9 µM (inactive)	18.1 µM (inactive)	22.4 µM (inactive)	28.2 µM (inactive)
N#Cc1cc([N+](=O)[O-])ccc1NC(=O)C(=O)Nc1n[nH]c(N)n1	> 100 µM (inactive)	> 100 µM (inactive)	> 100 µM (inactive)	> 100 µM (inactive)	> 100 µM (inactive)	–	> 100 µM (inactive)	> 100 µM (inactive)	> 100 µM (inactive)	> 100 µM (inactive)	> 100 µM (inactive)	> 100 µM (inactive)	> 100 µM (inactive)	> 100 µM (inactive)	> 100 µM (inactive)	> 100 µM (inactive)	> 100 µM (inactive)	> 100 µM (inactive)	> 100 µM (inactive)	> 100 µM (inactive)
Cc1cccc(-n2c(C)nc3ccc(NC4OC(CO)C(O)C(O)C4O)cc3c2=O)c1 (stereo unspecified)	> 100 µM (inactive)	> 100 µM (inactive)	> 100 µM (inactive)	–	> 100 µM (inactive)	> 100 µM (inactive)	> 100 µM (inactive)	> 100 µM (inactive)	> 100 µM (inactive)	–	> 100 µM (inactive)	61 µM (inactive)	> 100 µM (inactive)	> 100 µM (inactive)	> 100 µM (inactive)	> 100 µM (inactive)	–	> 100 µM (inactive)	> 100 µM (inactive)	–
CCCn1c(SCCSc2c3ccccc3c(-c3nc(F)nc(F)n3)n2CCC)c2ccccc2c1-c1nc(F)nc(F)n1	> 100 µM (inactive)	> 100 µM (inactive)	> 100 µM (inactive)	> 100 µM (inactive)	> 100 µM (inactive)	–	> 100 µM (inactive)	> 100 µM (inactive)	> 100 µM (inactive)	38.6 µM (inactive)	> 100 µM (inactive)	> 100 µM (inactive)	> 100 µM (inactive)	> 100 µM (inactive)	> 100 µM (inactive)	> 100 µM (inactive)	> 100 µM (inactive)	> 100 µM (inactive)	> 100 µM (inactive)	> 100 µM (inactive)
C[C@@H]1C[C@](O)([C@@H](C)Cl)C(=O)O[C@@H]2CCN3CC=C(COC(=O)[C@]1(C)O)[C@H]23	> 100 µM (inactive)	> 100 µM (inactive)	> 100 µM (inactive)	> 100 µM (inactive)	–	> 100 µM (inactive)	> 100 µM (inactive)	> 100 µM (inactive)	–	> 100 µM (inactive)	> 100 µM (inactive)	> 100 µM (inactive)	> 100 µM (inactive)	> 10 µM (inactive)	> 100 µM (inactive)	> 100 µM (inactive)	> 100 µM (inactive)	> 10 µM (inactive)	> 100 µM (inactive)	> 100 µM (inactive)
COc1cc([C@@H]2c3cc4c(cc3[C@@H](NCc3ccccc3F)C3COC(=O)[C@@H]32)OCO4)cc(OC)c1O (stereo partly specified)	2.81 µM (inactive)	11.8 µM (inactive)	1.18 µM (inactive)	3.01 µM (inactive)	0.425 µM (active)	–	24.8 µM (inactive)	6.03 µM (inactive)	5.18 µM (inactive)	1.47 µM (inactive)	12.2 µM (inactive)	23.4 µM (inactive)	5.45 µM (inactive)	4.05 µM (inactive)	1.91 µM (inactive)	1.93 µM (inactive)	4.04 µM (inactive)	0.56 µM (active)	15.6 µM (inactive)	2.58 µM (inactive)
O=c1c2ccc(Cl)cc2oc2c(CNc3ccc(S(=O)(=O)Nc4nccs4)cc3)cccc12	> 100 µM (inactive)	> 100 µM (inactive)	–	> 100 µM (inactive)	> 100 µM (inactive)	> 100 µM (inactive)	> 100 µM (inactive)	> 100 µM (inactive)	> 100 µM (inactive)	99.1 µM (inactive)	> 100 µM (inactive)	> 100 µM (inactive)	–	> 100 µM (inactive)	0.951 µM (active)	> 100 µM (inactive)	31.2 µM (inactive)	–	> 100 µM (inactive)	> 100 µM (inactive)
O=S(=O)(O)c1cccc2c(/N=N/c3c(O)ccc4ccccc34)cccc12	> 100 µM (inactive)	–	–	> 100 µM (inactive)	> 100 µM (inactive)	> 100 µM (inactive)	> 100 µM (inactive)	> 100 µM (inactive)	> 100 µM (inactive)	–	> 100 µM (inactive)	> 100 µM (inactive)	> 100 µM (inactive)	> 100 µM (inactive)	> 100 µM (inactive)	> 100 µM (inactive)	> 100 µM (inactive)	–	> 100 µM (inactive)	> 100 µM (inactive)
CC(NC(=O)C(NC(=O)OCc1ccccc1)C(C)C)C(=O)NCC(=O)O (stereo not drawn) (Cbz-Val-Ala-Gly-OH; configuration not given here)	> 100 µM (inactive)	> 100 µM (inactive)	–	> 100 µM (inactive)	> 100 µM (inactive)	> 100 µM (inactive)	> 100 µM (inactive)	> 100 µM (inactive)	> 100 µM (inactive)	> 100 µM (inactive)	> 100 µM (inactive)	> 100 µM (inactive)	–	> 100 µM (inactive)	> 100 µM (inactive)	> 100 µM (inactive)	> 100 µM (inactive)	> 100 µM (inactive)	> 100 µM (inactive)	> 100 µM (inactive)
